Data on 4 compounds can be found in the NIST ThermoML archive (doi:10.1016/j.jct.2012.01.022).

The conditions of the data set: 298.15 K, 101.33 kPa, Liquid; for viscosity: Capillary tube (Ostwald / Ubbelohde) method; for speed of sound: Sing-around technique in a fixed-path interferometer; for mass density: Vibrating tube method.

Broadly, the viscosity is the internal friction of a fluid under shear. A word on the speed of sound: it is the propagation velocity of pressure waves in the medium. The mass density is mass per unit of volume.

± gives the expanded uncertainty stated by the source.

As to `CCCCCCCCO` [octan-1-ol], the viscosity is 7.143 ± 0.041 mPa·s, the speed of sound was determined as 1347.5 ± 0.9 m/s and the mass density came out at 821.794 ± 0.14 kg/m3.
Take `CCCCCCO` [hexan-1-ol]: the viscosity is 4.439 ± 0.042 mPa·s, the speed of sound is recorded as 1303.2 ± 1.7 m/s and the mass density worked out at 815.265 ± 0.41 kg/m3.
As to `NCCN` [ethane-1,2-diamine], the viscosity is 1.405 ± 0.012 mPa·s, the speed of sound is 1671.6 ± 1.3 m/s and the mass density is reported as 892.389 ± 0.23 kg/m3.
As to `CCCCCCCCCCO` [decan-1-ol], the viscosity came to 11.19 ± 0.062 mPa·s, the speed of sound is given as 1379.8 ± 0.9 m/s and the mass density came out at 826.47 ± 0.14 kg/m3.
